The values that follow come from patent EP0275742A1, “5-Hydroxymethyl derivatives of 2-oxazolidinones, their preparation and their therapeutical use” (SYNTHELABO, priority 1986, dated 1988).

pKi: −log10 of the molar value.

One test concerns the target T1, MAO-B (Rattus norvegicus, UniProt P19643).
T1 construct: un homogénat de cerveau total de rat mâle Sprague-Dawley; from tissue; host or cells: whole brain homogenate of male Sprague-Dawley rat
T1 sequence (P19643 1-520): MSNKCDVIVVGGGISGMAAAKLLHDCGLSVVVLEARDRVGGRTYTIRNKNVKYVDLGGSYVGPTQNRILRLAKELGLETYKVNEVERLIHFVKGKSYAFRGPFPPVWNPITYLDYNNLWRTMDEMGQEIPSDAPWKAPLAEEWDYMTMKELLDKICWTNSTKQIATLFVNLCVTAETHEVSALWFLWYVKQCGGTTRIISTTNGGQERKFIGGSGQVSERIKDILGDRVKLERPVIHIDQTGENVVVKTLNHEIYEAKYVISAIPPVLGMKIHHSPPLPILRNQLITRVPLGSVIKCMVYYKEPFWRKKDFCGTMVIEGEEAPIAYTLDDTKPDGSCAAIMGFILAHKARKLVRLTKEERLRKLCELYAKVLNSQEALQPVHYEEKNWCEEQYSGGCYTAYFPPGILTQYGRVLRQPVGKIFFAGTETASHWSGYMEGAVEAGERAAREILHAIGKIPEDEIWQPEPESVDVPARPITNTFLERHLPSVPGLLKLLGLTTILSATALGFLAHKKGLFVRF
The test is described as follows: MAO-B inhibition in vitro, rat brain homogenate (protocol of DOSTERT P. et coll.). The format is biochemical. Conditions: for pKi: 20 min preincubation, [14C] phényléthylamine 12 µM, KM = 6 µM, whole brain homogenate of male Sprague-Dawley rat, 1 g tissue/16 ml phosphate buffer pH 7,4, Ki calculated from CI 50; for Ki (A) / Ki (B): selectivity ratio MAO-A over MAO-B, rat brain homogenate. The method, then:
(§1) Cette activité-a été mise en évidence par mise en oeuvre du protocole décrit par DOSTERT P. et coll. dans J. Pharm. Pharmacol., 1983, 35, 161-165; ce protocole est basé sur des tests enzymatiques menés avec ou sans préincubation notamment à 37° C pendant 20 minutes et il permet de mesurer in vitro l'effet inhibiteur à l'égard de la MAO-A et de la MAO-B du cerveau de rat.
(§2) Le tableau IV ci-après rassemble les constantes d'inhibition Ki(A) et Ki(B) respectivement des formes A et B de la MAO, obtenues pour un certain nombre de composés selon l'invention en suivant le protocole ci-dessus appliqué à un homogénat de cerveau total de rat mâle Sprague-Dawley, à 1 g de tissu/16 ml de tampon phosphate de pH 7,4.

A further test deals with T2, MAO-A (Rattus norvegicus, UniProt P21396).
T2 construct: un homogénat de cerveau total de rat mâle Sprague-Dawley; from tissue; host or cells: whole brain homogenate of male Sprague-Dawley rat
T2 sequence (P21396 1-526): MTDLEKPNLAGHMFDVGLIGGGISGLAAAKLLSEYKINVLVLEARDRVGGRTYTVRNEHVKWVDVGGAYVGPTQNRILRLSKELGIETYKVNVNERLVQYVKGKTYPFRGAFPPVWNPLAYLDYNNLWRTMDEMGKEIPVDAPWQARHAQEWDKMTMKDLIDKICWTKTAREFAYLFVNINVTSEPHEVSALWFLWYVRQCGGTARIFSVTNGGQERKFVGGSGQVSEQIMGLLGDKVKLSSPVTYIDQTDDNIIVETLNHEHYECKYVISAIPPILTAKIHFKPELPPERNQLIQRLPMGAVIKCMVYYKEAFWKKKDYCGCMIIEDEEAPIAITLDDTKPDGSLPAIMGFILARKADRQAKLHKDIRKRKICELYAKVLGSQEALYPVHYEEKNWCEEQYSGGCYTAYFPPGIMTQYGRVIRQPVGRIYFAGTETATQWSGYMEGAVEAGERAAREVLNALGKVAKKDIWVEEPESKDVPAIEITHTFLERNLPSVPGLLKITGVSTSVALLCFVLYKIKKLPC
The test is described as follows: MAO-A inhibition in vitro, rat brain homogenate (protocol of DOSTERT P. et coll.). It counts as biochemical. The following applies: 20 min preincubation; [14C] sérotonine 480 µM, KM = 100 µM; whole brain homogenate of male Sprague-Dawley rat, 1 g tissue/16 ml phosphate buffer pH 7,4; Ki calculated from CI 50. The method, then: as §1, §2

For the compound `C[C@@H](O)[C@H]1CN(c2ccc(OCC3CCCCC3)cc2)C(=O)O1` [compound 200443], on MAO-B, the pKi was 7.40 and the “Ki (A) / Ki (B)” value was 259. For the same compound, the pKi on MAO-A was 4.99.
Consider `C[C@@H](O)[C@H]1CN(c2ccc(OCc3ccc(F)c(Cl)c3)cc2)C(=O)O1` [compound 200498], for which, at MAO-B, the pKi was 7.85 and the “Ki (A) / Ki (B)” value was 634. Also, on MAO-A, the pKi was 5.05.
`C[C@H](O)[C@@H]1CN(c2ccc(OCc3cccc(Cl)c3)cc2)C(=O)O1` [compound 300872, [(chloro-3 benzyloxy)-4 phényl]-3 (hydroxy-1 étant)-5 oxazolidinone-2]: at MAO-B, the pKi is 5.80 and the “Ki (A) / Ki (B)” value is given as > 0,6. The pKi at MAO-A is less than 6.00.
For `CC(C)CCOc1ccc(N2C[C@H]([C@@H](C)O)OC2=O)cc1` [compound 200497] the same measures were 6.77, 36 and 5.22.
Regarding “[(chloro-3 benzyloxy)-4-phenyl]-3 (hydroxy-1 éthyl)-5 oxazolidinone-2 [compound 340176]”, at MAO-B, the pKi was 7.00 and the “Ki (A) / Ki (B)” value was found to be 5. In addition, at MAO-A, the pKi was 6.32.
Consider `C[C@@H](O)[C@H]1CN(c2ccc(OCc3cccc(Cl)c3)cc2)C(=O)O1` [compound 300873, [(chloro-3 benzyloxy)-4 phényl)-3 (hydroxy-1 éthyl)-5 oxazolidinone-2], for which the pKi is 7.57 on MAO-B and less than 4.76 on MAO-A. In addition, on MAO-B, the “Ki (A) / Ki (B)” value is more than 640.
With “[(chloro-3 benzyloxy)-4 phényl]-3 (hydroxy-1 éthyl)-5 oxazolidinone-2 [compound 340177]”, at MAO-B, the pKi is 6.46 and the “Ki (A) / Ki (B)” value is 7. In addition, at MAO-A, the pKi was 5.65.

As usually defined, the pKi is −log10 of the Ki, conventionally taken in molar units.
